The text below walks through data of patent US8518903B2, “Use of toll-like receptor-9 agonists” (University of Pittsburgh—of the Commonwealth System of …, priority 2007, dated 2013).

One assay deals with IEC-6 cells. Kind of assay: TLR4 and TLR9 expression and distribution in enterocytes (Western blot, immunofluorescence). The format is cell-based. From the text:
FIG. 12. TLR4 and TLR9 expression are unchanged by CpG-DNA and LPS in enterocytes. Western blot showing levels of TLR4 and TLR9 (relative to actin) in enterocytes which were either untreated (Ctrl) or treated with LPS, LPS+CpG, or CpG.
FIG. 13A-E. CpG-DNA causes a redistribution of TLR4 into internal structures in IEC-6 cells. Immunofluorescence studies showing TLR4 distribution in IEC-6 cells which were either untreated (A) or treated with (B) LPS; (C) LPS+CpG; or (D) CpG. (E) is a schematic drawing showing redistribution of TLR4 caused by TLR9.
FIG. 14A-D. LPS causes the internalization of TLR9, which is reversed by CpG-DNA. Immunofluoresence studies of IEC-6 cells showing TLR9 distribution in cells which were either (A) untreated; or treated with (B) LPS; (C) LPS+CpG; or (D) CpG.
Further experiments were performed to study the mechanism by which TLR9 suppresses the TLR4 activation.

A further assay has as its system IEC-6 enterocytes. Kind of assay: Assessment of NFkB activation (nuclear:cytoplasmic ratio of p65) in IEC-6 enterocytes. In kind it is cell-based. As to conditions: IEC-6 cells, LPS 50 μg/ml, CpG-DNA 1 μM, polymixin B 10 μg/ml, 1 hour. How it is done: FIG. 21. Nuclear:cytoplasmic ratio of NFκB, indicating the extent of translocation of NFκB into the nucleus, in IEC-6 cells which were either untreated (control); treated with LPS; treated with LPS and CpG; treated with LPS, CpG and polymixin B; treated with CpG; or treated with polymixin B. The concentrations used were LPS at […] CpG-DNA at 1 μM, and polymixin B at 10 μg/ml.
Assessment of NFkB activation. IEC-6 enterocytes were treated with LPS (50 μg/ml, Sigma-Aldrich, St. Louis, Mo.) and/or CpG-DNA (1 μM) either alone or in combination for 1 hour and immunostained with antibodies against the p65 subunit of NF-κB. Quantification of nuclear translocation was performed as adapted from Ding, et al. J Biol. Chem. 1998 Oct. 30; 273(44):28897-905. […] The average NF-κB p65 intensity of the cytoplasmic area was determined by subtracting the area and integrated intensity of the nuclear ROI from the nuclear+cytoplasmic ROI and dividing the cytoplasmic integrated intensity by the cytoplasmic area. The extent of p65 staining in the nucleus versus the cytoplasm (i.e. the nuclear to cytoplasmic ratio) was calculated for each cell by dividing the nuclear average NF-κB p65 intensity by the cytoplasmic average NF-κB p65 intensity. Nuclear to cytoplasmic ratio was calculated for more than 200 cells per treatment group for more than 4 separate experiments.

The subject of assay [1] is enterocytes. Nature of the assay: LPS-mediated cytokine (IL-6) release from enterocytes. In kind it is cell-based. As to conditions: 50 μg/ml LPS + 10 μM CpG. As for the experimental part:
FIG. 8. CpG-DNA reduces LPS-mediated cytokine release from enterocytes. Bar graph showing the level of supernatant IL-6 in enterocytes which were either untreated (“CTRL”) or treated with 50 μg/ml LPS, 50 m/ml LPS+10 μM CpG, or 10 μM CpG.

For assay [2], the system named is enterocytes. Kind of assay: LPS-mediated NF-κB (p65) translocation in enterocytes, with and without TLR9 siRNA knock-down. In kind it is cell-based. As for the experimental part: FIG. 7A-E. LPS-mediated translocation in enterocytes which are either (A) untreated or treated with (B) 50 μg/ml LPS; (C) 50 μg/ml LPS+10 μM CpG; or (D) 10 μM CpG. (E) Bar graph showing the nuclear:cytoplasmic ratio for NF-κB in (A)-(D).
FIG. 9A-F. CpG-DNA reduces TLR4 signaling through TLR9 in enterocytes. (A) Western blot showing the amounts of TLR9 protein relative to actin in untreated enterocytes (Ctrl) or in enterocytes treated with 0.084 μM non-specific siRNA or siRNA specific for TLR9. (B)-(E) are immunofluorescence studies showing the relative amounts of p65 in the enterocyte nucleus versus its cytoplasm, when either (B) untreated or treated with (C) 50 μg/ml LPS; (D) 50 μg/ml LPS+10 μM CpG (in the context of normal TLR9 levels) or (E) 50 μg/ml LPS+10 μM CpG (in the context of TLR9 knockdown by siRNA). (E) Bar graph showing the results of (B)-(E).
A second series of experiments was designed to study the consequences of the TLR4 activator LPS and the TLR9 activator CpG on the mediator of activated TLR4, NFκB. As shown by comparing FIGS. 7A and B, LPS causes NFκB to translocate into the nucleus. The extent of translocation caused by LPS is decreased by co-exposure to CpG (FIGS. 7C and E).
All the foregoing three series of experiments have shown that CpG (an activator of TLR9) inhibited the effects of TLR4 activation, including its role in promoting inflammation. […]

In another assay the test system is murine intestinal mucosa. Nature of the assay: LPS-dependent signaling and inflammation in the murine intestinal mucosa in vivo. Set-up: species or system mouse. The conditions noted are these: LPS + CpG vs LPS. From the text: FIG. 10. Experimental design to assess whether TLR9 activation affects TLR4-mediated inflammation in vivo.
(A). Western blot showing levels of signaling molecules phospho-p38 and phospho-ERK (relative to actin) in mice which were either untreated (Ctrl) or treated with LPS, LPS+CpG, or CpG. (B) Bar graph showing serum levels of the inflammatory cytokine IL-6 in mice which were either untreated (Ctrl) or treated with LPS, LPS+CpG, or CpG.
Experiments were then designed to determine whether the above phenomena, observed in vitro, could be confirmed in vivo (see FIG. 10).

In the case of 5′-TCCATGACGTTCCTGACGTT-3′ [CpG-DNA], the “LPS-caused internalization of TLR9” value in the assay on IEC-6 cells (IEC-6 cells, LPS + CpG) is recorded as “reversed”. In the assay on IEC-6 cells (IEC-6 cells, immunofluorescence), the TLR4 distribution entry is “causes a redistribution of TLR4 into internal enterocyte structures”. Also, the “TLR4 and TLR9 expression” value in the assay with IEC-6 cells (enterocytes treated with CpG-DNA and LPS) is “unchanged”. For the same substance, in the assay on IEC-6 enterocytes, the “LPS-induced translocation of NFκB into the nucleus (nuclear:cytoplasmic ratio)” value is “significantly inhibited translocation”. Also, in the assay with enterocytes [1], the “LPS-mediated cytokine release (supernatant IL-6)” value is “reduces”. Besides, the “attenuating effect of CpG on translocation of NFκB subunit p65” value in the assay on enterocytes [2] (enterocytes with TLR9 expression suppressed by siRNA, 50 μg/ml LPS + 10 μM CpG) was “virtually eliminated”. Also, the “extent of NFκB translocation into the nucleus caused by LPS” value with enterocytes [2] (enterocytes, 50 μg/ml LPS + 10 μM CpG vs LPS alone) was “decreased”. The “serum IL-6 level” value in the assay on murine intestinal mucosa (mice) is recorded as “attenuated”. Further, in the assay with murine intestinal mucosa (murine intestinal mucosa), the “level of phosphorylated ERK (LPS-dependent signaling)” value was “attenuated” and the “level of phosphorylated p38 (LPS-dependent signaling)” value was “attenuated”.
